Key:
[1] = In vivo release kinetics from rapamycin/cladribine EVA/BMA basecoat, porcine pharmacokinetics studies (FIG. 62, 63); design: species or system Yorkshire pigs; settings: comparison of FIG. 63 with FIG. 62
Excerpt: The basecoat is applied to Bx Velocity® stents and implanted into Yorkshire pigs.
The basecoat is applied to BxVelocity® stents and implanted into Yorkshire pigs.

[2] = In vivo release kinetics of cladribine from PVDF/HFP coating on Bx Velocity stents (FIG. 61); design: species or system Yorkshire pig; settings: 1800 micrograms basecoat, thirty percent cladribine, 300 micrograms topcoat
Excerpt: FIG. 61 is a graphical representation of the in vivo release kinetics of cladribine from a polymeric coating on BxVelocity® stents, available from Cordis Corporation, implanted in a Yorkshire pig. The basecoat comprises an 85/15 ratio of PVDF and HFP and cladribine for a total combined weight of one thousand eight hundred micrograms (cladribine comprising thirty percent of the total weight). The topcoat comprises an 85/15 ratio of PVDF/HFP and no cladribine. The total weight of the topcoat is three hundred micrograms.

[3] = test system: human coronary artery smooth muscle cells; experiment: Anti-proliferative activity in non-synchronized cultured cells, two percent fetal bovine serum (FIG. 57, 58); assay type: cell-based
Excerpt: FIG. 58 illustrates, in graphical format, the anti-proliferative activity of cladribine in non-synchronized cultured human coronary artery smooth muscle cells stimulated with two percent fetal bovine serum.
The multiple curves represent various concentrations of cladribine ranging from zero to nine hundred nanomolar concentrations.

[4] = In vivo release kinetics from rapamycin/mycophenolic acid EVA/BMA basecoat, porcine pharmacokinetics studies (FIG. 53, 54); settings: 180 micrograms rapamycin, 180 micrograms mycophenolic acid, 240 micrograms EVA/BMA; none, 100 or 200 micrograms BMA topcoat
[5] = test system: human coronary artery smooth muscle cells; experiment: Anti-proliferative activity of rapamycin with mycophenolic acid, non-synchronized cells, two percent fetal bovine serum (FIG. 52); assay type: cell-based; settings: mycophenolic acid zero to one thousand nanomolar; leftward and upward shift
Excerpt: The multiple curves represent various concentrations of mycophenolic acid ranging from zero to one thousand nanomolar concentrations. […] This potentiation observed in cultured coronary artery smooth muscle cells preferably translates to an enhancement in anti-restenotic efficacy following vascular injury and a reduction in the required amount of either agent to achieve the desired anti-restenotic effect.

[6] = test system: human coronary artery smooth muscle cells; experiment: Anti-proliferative activity in synchronized cultured cells, two percent fetal bovine serum (FIG. 64-68); assay type: cell-based
Excerpt: (§1) The multiple curves represent various concentrations of topotecan ranging from zero to three hundred nanomolar concentrations.
(§2) The multiple curves represent various concentrations of etoposide ranging from zero to eight hundred nanomolar concentrations.
Referring to FIG. 66, there is illustrated, in graphical format, the anti-proliferative activity of Panzem® in synchronized cultured human coronary artery smooth muscle cells stimulated with two percent fetal bovine serum.
The multiple curves represent various concentrations of Panzem® ranging from zero to 100 micromolar concentrations.

cell viability = experiment: Cell viability assay; assay type: cell-based
Excerpt: as §1, §2

[7] = test system: human coronary artery smooth muscle cell; experiment: MTS cytotoxicity assay (FIG. 69); assay type: cell-based; settings: concentrations up to 30,000.00 nanomolar (6.6 to 30,000.00 nanomolar tested)
Excerpt: Typically, a control is utilized to determine baseline toxicity.

[8] = Liquid formulations with PEG 200, ethanol and water; concentrations by liquid chromatography; assay type: physicochemical; settings: liquid formulation comprising 4 mg/ml of sirolimus
Excerpt: In accordance with exemplary embodiments of the present invention, a series of liquid formulations were developed for the local or regional delivery of water insoluble compounds such as sirolimus and its analogs, including CCl-779, ABT-578 and everolimus, through weeping balloons and catheter injection needles. […] These liquid formulations increase the apparent solubility of the pharmacologically active but water insoluble compounds by two to four orders of magnitude as compared to the solubility limits of the compounds in water. These liquid formulations rely on the use of a very small amount of organic solvents such as Ethanol (typically less than two percent) and a larger amount of safe amphiphilic (of or relating to a molecule having a polar, water soluble group attached to a non-polar, water insoluble […]) excipients such as polyethylene glycol (PEG 200, PEG 400) and vitamin E TPGS to enhance the solubility of the compounds. These liquid formulations of highly water insoluble compounds are stable and readily flowable at room temperature. Certain excipients, such as Vitamin E TPGS and BHT may be utilized to enhance the storage stability of sirolimus compounds through their anti-oxidation properties. […]

[9] = In vivo release kinetics from rapamycin/mycophenolic acid PVDF basecoat with PVDF topcoat, porcine pharmacokinetics studies (FIG. 56); settings: 600 micrograms basecoat, 200 micrograms topcoat
Excerpt: The topcoat is two hundred micro grams.

[10] = test system: human coronary artery smooth muscle cell; experiment: In vitro cell culture study of coronary artery smooth muscle cell proliferation (trichostatin A); assay type: cell-based
Excerpt: FIG. 51 is a graph of the inhibition of coronary artery smooth muscle cells by trichostatin A in a cell culture study.

tumor cell lines = settings: cited from earlier work

For `Nc1nc(Cl)nc2c1ncn2[C@H]1C[C@H](O)[C@@H](CO)O1` [cladribine, 2-chlorodeoxyadenosine], the “in vivo elution from EVA/BMA basecoat with BMA topcoat relative to rapamycin” value [1] was “elutes more rapidly than rapamycin”, the “in vivo elution from PVDF/HFP (85/15) coating” value [2] was “levels off significantly” and the “effect of addition to cells treated with rapamycin” value (from here on “effect of addition to cells treated”) ([3]; cladribine 56.25 to 900 nanomolar) was “increases the percent inhibition of rapamycin alone”. For the same molecule, the “inhibition of human coronary artery smooth muscle cell proliferation” value ([3]; non-synchronized cells, two percent fetal bovine serum) was “completely inhibits”.
In the case of `COc1c(C)c2c(c(O)c1C/C=C(\C)CCC(=O)O)C(=O)OC2` [mycophenolic acid], the “in vivo elution from EVA/BMA basecoat relative to co-loaded drug” value [4] is reported as “elutes more completely over a shorter duration than the rapamycin” and the “effect of addition on the anti-proliferative rapamycin dose response curve” value [5] is reported as “potentiates the anti-proliferative activity of rapamycin”.
With `COc1cc([C@@H]2c3cc4c(cc3[C@@H](O[C@@H]3O[C@@H]5CO[C@@H](C)O[C@H]5[C@H](O)[C@H]3O)[C@H]3COC(=O)[C@H]23)OCO4)cc(OC)c1O` [etoposide] the “effect of addition to cells treated” value ([6]; etoposide 255.7 to eight-hundred nanomolar) was “increases the percent inhibition of rapamycin alone” and the “cytotoxicity in a cell viability assay” value (cell viability; concentrations up to ten micromolar) was “non-cytotoxic”.
With `CC[C@@]1(O)C(=O)OCc2c1cc1n(c2=O)Cc2cc3c(CN(C)C)c(O)ccc3nc2-1` [topotecan] the “effect of addition to cells treated” value ([6]; topotecan 18.8 to 300 nanomolar) was “increases the percent inhibition of rapamycin alone” and the “cytotoxicity in a separate cell viability assay” value (cell viability; concentrations up to one micromolar) was “non-cytotoxic”.
In the case of `COc1cc2c(cc1O)CC[C@@H]1[C@@H]2CC[C@]2(C)[C@@H](O)CC[C@@H]12` [Panzem®, 2-methoxyestradiol], the “effect of addition to cells treated” value ([6]; Panzem 0.813 to 100 micromolar) is reported as “increases the percent of inhibition of rapamycin alone”, the “anti-proliferative activity (FIG. 66, 67)” value ([6]; in vitro, agent alone) is reported as “extremely effective inhibitor” and the “MTS assay: cell survival” value [7] is reported as “do not reduce human coronary artery smooth muscle cell survival”.
With `CO[C@H]1C[C@@H]2CC[C@@H](C)[C@@](O)(O2)C(=O)C(=O)N2CCCC[C@H]2C(=O)O[C@H]([C@H](C)C[C@@H]2CC[C@@H](O)[C@H](OC)C2)CC(=O)[C@H](C)/C=C(\C)[C@@H](O)[C@@H](OC)C(=O)[C@H](C)C[C@H](C)/C=C/C=C/C=C/1C` [rapamycin] the “concentration of sirolimus relative to the solubility of sirolimus in water” value [8] was “four hundred to about one thousand” and the “in vivo release rate from PVDF basecoat with PVDF topcoat relative to co-loaded drug” value [9] was “slower release rate than that of mycophenolic acid”.
For `CC(/C=C/C(=O)NO)=C\[C@@H](C)C(=O)c1ccc(N(C)C)cc1` [trichostatin A], the “inhibition of human coronary artery smooth muscle cell proliferation” value [10] is listed as “completely inhibit”, the IC50 ([10]; read-out: anti-proliferative IC50) is listed as about 6 nM and the “anti-proliferative IC50's” value (tumor cell lines) is listed as “low nM range”.
